# In patent publication US8633182B2, “Indanyloxyphenylcyclopropanecarboxylic acids” (Boehringer Ingelheim International GmbH, priority 2012, dated 2014):
# Target: human GPR40 receptor (Homo sapiens, UniProt O14842)
# Assay: IP1 accumulation measurements using the IPOne assay system in 1321N1 cells stably expressing human GPR40 receptor
# Assay type: cell-based
# Settings: IP1 accumulation (HTRF), 1321N1 cells stably expressing human GPR40, 1 hour stimulation at 37° C.
# Experimental: IP1 accumulation measurements using the IPOne assay system—1321N1 cells stably expressing human GPR40 receptor (Euroscreen, Belgium) are seeded 24 h before the assay in black clear-bottom collagen-coated or white 384-well plates in culture medium containing 10% FCS, 1% Na-Pyruvate and 400 μg/mL G418. IP1 is assayed according to the Manufacturer's description (Cisbio Bioassays, France). In brief, the assay is started by substitution of the culture medium by stimulation buffer (Hepes 10 mM, CaCl2 1 mM, MgCl2 0.5 mM, KCl 4.2 mM, NaCl 146 mM and glucose 5.5 mM, pH 7.4) without LiCl or with […]. Cells are stimulated for 1 hour at 37° C., 5 or 10% CO2 by addition of the compounds that are diluted in stimulation buffer containing LiCl yielding a final LiCl concentration of 50 mM. Assays are stopped by adding HTRF-conjugates (IP1-d2 and Anti-IP1 cryptate Tb) and lysis buffer, provided by the manufacturer. After an incubation time of 1 hour at room temperature plates are measured using an EnVision™, Perkin Elmer. The obtained fluorescence ratios at […] are then used to calculate the pEC50 values using GraphPad Prism 5 (Graphpad Software Inc, USA) or Assay Explorer 3.3 Software (Accelrys, Inc.) by interpolation using an IP1 reference curve and subsequent sigmoidal curve fitting allowing for a variable hill slope.
# human GPR40 receptor, sequence (O14842 whole entry): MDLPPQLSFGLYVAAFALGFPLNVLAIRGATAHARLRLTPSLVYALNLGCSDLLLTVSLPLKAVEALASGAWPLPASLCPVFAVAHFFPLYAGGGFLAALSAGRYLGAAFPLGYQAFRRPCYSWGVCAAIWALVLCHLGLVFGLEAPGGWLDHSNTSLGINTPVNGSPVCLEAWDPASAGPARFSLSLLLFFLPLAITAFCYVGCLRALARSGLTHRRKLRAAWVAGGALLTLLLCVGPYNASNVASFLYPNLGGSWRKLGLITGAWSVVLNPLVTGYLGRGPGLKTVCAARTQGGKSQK
row,Compound,EC50 [nM]
1,"Cc1cc(OC(C)(C)C(N)=O)cc(C)c1-c1ccc(F)c2c1CC[C@H]2Oc1ccc([C@H]2C[C@@H]2C(=O)O)cc1 [Example 30, (1S,2S)-2-(4-{(R)-4-[4-(1-Carbamoyl-1-methyl-ethoxy)-2,6-dimethyl-phenyl]-7-fluoro-indan-1-yloxy}-phenyl)-cyclopropanecarboxylic acid]",18
2,O=C(O)[C@H]1C[C@@H]1c1ccc(O[C@@H]2CCc3c2cccc3C(F)(F)F)cc1 [Example 10],13
3,"Cc1cc(OCC2CN(S(C)(=O)=O)C2)cc(C)c1-c1ccc(F)c2c1CC[C@H]2Oc1ccc([C@H]2C[C@@H]2C(=O)O)cc1 [Example 20, (1S,2S)-2-(4-{(R)-7-Fluoro-4-[4-(1-methanesulfonyl-azetidin-3-ylmethoxy)-2,6-dimethyl-phenyl]-indan-1-yloxy}-phenyl)-cyclopropanecarboxylic acid]",10
4,"O=C(O)C1CC1c1ccc(O[C@@H]2CCc3cc(C(F)(F)F)ccc32)cc1 (stereo in doubt) [Example 3, 2-[4-((R)-5-Trifluoromethyl-indan-1-yloxy)-phenyl]-trans-cyclopropanecarboxylic acid]",36
5,Cc1cc(OCC2CCS(=O)(=O)CC2)cc(C)c1-c1c(C#N)ccc2c1CC[C@H]2Oc1ccc([C@H]2C[C@@H]2C(=O)O)cc1 [Example 35],28
6,"Cc1cc(-c2nnn(CC(C)(C)O)n2)cc(C)c1-c1ccc(F)c2c1CC[C@H]2Oc1ccc([C@H]2C[C@@H]2C(=O)O)cc1 [Example 43, (1S,2S)-2-[4-((R)-7-Fluoro-4-{4-[2-(2-hydroxy-2-methyl-propyl)-2H-tetrazol-5-yl]-2,6-dimethyl-phenyl}-indan-1-yloxy)-phenyl]-cyclopropanecarboxylic acid]",3
7,Cc1cc(OCC2CCS(=O)(=O)CC2)cc(C)c1-c1ccc(F)c2c1CC[C@H]2Oc1ccc([C@H]2C[C@@H]2C(=O)O)cc1 [Example 21],7
8,"Cc1nc(-c2ccc(-c3c(C(F)(F)F)ccc4c3CC[C@H]4Oc3ccc([C@H]4C[C@@H]4C(=O)O)cc3)cc2)no1 [Example 64, (1S,2S)-2-(4-{(R)-4-[4-(5-Methyl-[1,2,4}oxadiazol-3-yl)-phenyl]-5-trifluoromethyl-indan-1-yloxy}-phenyl)-cyclopropanecarboxylic acid]",3
9,N#Cc1ncccc1-c1ccc(F)c2c1CC[C@H]2Oc1ccc([C@H]2C[C@@H]2C(=O)O)cc1 [Example 55],75
10,"O=C(O)C1CC1c1ccc(O[C@@H]2CCc3c2cccc3C(F)(F)F)cc1F (stereo in doubt) [Example 5, 2-[4-((R)-4-Trifluoromethyl-indan-1-yloxy)-2-fluorophenyl]-trans-cyclopropanecarboxylic acid]",85
11,COc1cccnc1-c1ccc(F)c2c1CC[C@H]2Oc1ccc([C@H]2C[C@@H]2C(=O)O)cc1 [Example 51],569
12,"Cc1cc(OCCCCS(C)(=O)=O)cc(C)c1-c1ccc(F)c2c1CC[C@H]2Oc1ccc([C@H]2C[C@@H]2C(=O)O)cc1 [Example 31, (1S,2S)-2-(4-{(R)-7-Fluoro-4-[4-(4-methanesulfonyl-butoxy)-2,6-dimethyl-phenyl]-indan-1-yloxy}-phenyl)-cyclopropanecarboxylic acid]",6
13,"Cc1cc(OC[C@@H](C)CS(C)(=O)=O)cc(C)c1-c1ccc(F)c2c1CC[C@H]2Oc1ccc([C@H]2C[C@@H]2C(=O)O)cc1 [Example 29, (1S,2S)-2-(4-{(R)-7-Fluoro-4-[4-((R)-3-methanesulfonyl-2-methyl-propoxy)-2,6-dimethyl-phenyl]-indan-1-yloxy}-phenyl)-cyclopropanecarboxylic acid]",7
14,Cn1ncc2cccc(-c3ccc(F)c4c3CC[C@H]4Oc3ccc([C@H]4C[C@@H]4C(=O)O)cc3)c21 [Example 40],2
15,O=C(O)[C@@H]1C[C@H]1c1ccc(O[C@@H]2CCc3c2cccc3C(F)(F)F)cc1 [Example 9],457
